The supplement of paper PMC8988213

Assays:
[1] = test system: ID211 patient-derived PDAC 2D line (post-FOLFIRINOX); test: normalised area under dose-response curve (viability relative to DMSO, 7 doses up to 10 µM) (fraction (AUC)); higher = less sensitive (more viability retained); details: 72 h; top dose: 10 µM
Outline: (§1)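 Patient-derived 2D PDAC cells grown out from organoids were seeded robotically at 1,500–3,000 cells/well in 96-well plates and incubated overnight at 37°C, 5% CO2. SelleckChem library compounds were added at seven concentrations (3-fold dilution series, highest 10 µM) for 72 h. CellTiter-Glo luminescence was read after 10 min. Viability was normalised to the DMSO control, and area under the dose-response curve was derived with the GRmetrics R package.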

[2] = test system: ID188 patient-derived PDAC 2D line (pre-FOLFIRINOX); test: as above; details: 72 h; top dose: 10 µM
Outline: as §1

Row | Structure (SMILES) | normalised area under dose-response curve [1] | normalised area under dose-response curve [2]
1 | CC(C)(C)c1[nH]cnc1/C=c1\[nH]c(=O)/c(=C/c2ccccc2)[nH]c1=O [Plinabulin (NPI-2358)] | 0.355 | 0.588
2 | C=CC(=O)N1CCC(Oc2cc3c(Nc4ccc(Cl)c(Cl)c4F)ncnc3cc2OC)CC1 [Poziotinib (HM781-36B)] | 0.54 | 0.908
3 | CCCCc1nc2cc(/C=C/C(=O)NO)ccc2n1CCN(CC)CC [Pracinostat (SB939)] | 0.799 | 0.778
4 | CC(C)(C)c1cc(NC(=O)Nc2ccc(-c3cn4c(n3)sc3cc(OCCN5CCOCC5)ccc34)cc2)no1 [Quizartinib (AC220)] | 0.809 | 0.974
5 | Nc1cc(F)ccc1NC(=O)/C=C/c1cnn(C/C=C/c2ccccc2)c1 [RGFP966] | 0.779 | 0.911
6 | Cc1cc2c3c([n+](C)c4ccc(F)cc4c3c1)-c1cc(F)ccc1N2C [RHPS 4 methosulfate] | 0.906 | 0.945
7 | O=C(NCc1cccc(O)c1)Nc1nc(-c2ccncc2)cs1 [RKI-1447] | 0.962 | 1.04
8 | O=C(CBr)N1CC([N+](=O)[O-])([N+](=O)[O-])C1 [RRx-001] | 0.843 | 0.915
9 | COC(=O)c1ccc([C@H]2c3[nH]c4ccccc4c3C[C@H](C(=O)OC)N2C(=O)CCl)cc1 [RSL3] | 0.175 | 0.465
10 | CNC(=O)c1cc(Oc2ccc(NC(=O)Nc3cc(C(C)(C)C)nn3-c3ccc4ncccc4c3)c(F)c2)ccn1 [Rebastinib (DCC-2036)] | 0.885 | 0.853
11 | CNC(=O)c1cc(Oc2ccc(NC(=O)Nc3ccc(Cl)c(C(F)(F)F)c3)c(F)c2)ccn1 [Regorafenib (BAY 73-4506)] | 0.936 | 0.775
12 | N#Cc1ccc(-c2csc(NN=C3CCCC3)n2)cc1 [Remodelin] | 0.854 | 0.941
13 | CN(C)C(=O)c1cc2cnc(Nc3ccc(N4CCNCC4)cn3)nc2n1C1CCCC1 [Ribociclib (LEE011)] | 0.812 | 0.961
14 | C/C=C1\NC(=O)[C@H]2CSSCC/C=C/[C@H](CC(=O)N[C@H](C(C)C)C(=O)N2)OC(=O)[C@H](C(C)C)NC1=O [Romidepsin] | 0.171 | 0.138
15 | Cc1nc(C(=O)NCC(=O)O)c(O)c2ccc(Oc3ccccc3)cc12 [Roxadustat (FG-4592)] | 0.842 | 0.951
16 | O=C(NNc1nc2cc(F)ccc2n2cccc12)c1cnccn1 [SC144] | 0.631 | 0.795
17 | CC(C)(C)C(=O)Nc1ccc2c(c1)C(=O)C(=O)c1ccccc1-2 [SF1670] | 0.809 | 0.966
18 | O=c1cc(N2CCOCC2)oc2c(-c3ccc4c(c3)OCCO4)csc12 [SF2523] | 0.768 | 0.968
19 | O=C(NCC(=O)N1CCCC1)Nc1ccc2cnccc2c1 [SGC707] | 0.863 | 0.955
20 | CC(C)N(CCCNC(=O)Nc1ccc(C(C)(C)C)cc1)C[C@H]1O[C@@H](n2cc(Br)c3c(N)ncnc32)[C@H](O)[C@@H]1O [SGC 0946] | 0.809 | 0.94
21 | COc1ccc(CCc2nc3cc(-c4c(C)noc4C)ccc3n2C[C@H](C)N2CCOCC2)cc1Cl [SGC-CBP30] | 0.951 | 0.984
22 | Cc1cc(Nc2ccc(NC(=O)c3ccc(Nc4ccnc5ccccc45)cc3)cc2)nc(N)n1 [SGI-1027] | 0.569 | 0.662
23 | CN1CCC(CNc2ccc3ncc(-c4cccc(OC(F)(F)F)c4)n3n2)CC1 [SGI-1776 free base] | 0.788 | 0.949
